Test results from ChEMBL document CHEMBL1141178, “Identification of 4-substituted 1,2,3-triazoles as novel oxazolidinone antibacterial agents with reduced activity against monoamine oxidase A” (J Med Chem, 2005).
Values after ≈ are worked out from the molar mass of the structure shown.

Columns and labels:
Streptococcus pneumoniae = assay: Minimum inhibitory concentration against penicillin susceptible Streptococcus pneumoniae AP671401; format: functional
Staphylococcus aureus = assay: Minimum inhibitory concentration against methicillin susceptible Staphylococcus aureus AP601055; format: functional
[1] = molecular target: T1, Amine oxidase [flavin-containing] A (Homo sapiens, UniProt P21397); assay: Binding affinity for human liver monoamine oxidase A
T1 sequence (P21397 whole entry): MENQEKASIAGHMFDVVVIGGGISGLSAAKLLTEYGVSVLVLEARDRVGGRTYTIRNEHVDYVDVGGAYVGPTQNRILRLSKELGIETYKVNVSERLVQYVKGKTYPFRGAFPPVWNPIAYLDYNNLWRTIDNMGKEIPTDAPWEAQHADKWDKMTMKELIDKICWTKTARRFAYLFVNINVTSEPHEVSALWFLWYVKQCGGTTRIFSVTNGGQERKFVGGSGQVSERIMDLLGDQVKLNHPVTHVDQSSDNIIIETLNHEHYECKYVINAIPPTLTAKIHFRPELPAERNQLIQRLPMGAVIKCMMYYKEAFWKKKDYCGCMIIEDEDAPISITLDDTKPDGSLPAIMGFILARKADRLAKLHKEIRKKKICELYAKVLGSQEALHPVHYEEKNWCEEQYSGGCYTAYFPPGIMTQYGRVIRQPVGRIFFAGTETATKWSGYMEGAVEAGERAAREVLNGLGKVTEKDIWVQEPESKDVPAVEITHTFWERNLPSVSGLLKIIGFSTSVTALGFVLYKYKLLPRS

[2] = Minimum inhibitory concentration against Haemophilus influenzae ATCC 51907; format: functional

MIC (Streptococcus pneumoniae) [µg/mL]	MIC (Staphylococcus aureus) [µg/mL]	Ki [1] [µM]	MIC [2] [µg/mL]	SMILES
0.25 (≈ 0.609 µM)	1 (≈ 2.44 µM)	0.5	2 (≈ 4.87 µM)	O=C1O[C@@H](Cn2cc(F)nn2)CN1c1ccc(C2=CCS(=O)(=O)CC2)c(F)c1
0.5 (≈ 1.06 µM)	2 (≈ 4.24 µM)	16	2 (≈ 4.24 µM)	O=C1O[C@@H](Cn2cc(Br)nn2)CN1c1ccc(C2=CCS(=O)(=O)CC2)c(F)c1
0.5 (≈ 1.23 µM)	1 (≈ 2.46 µM)	25	2 (≈ 4.92 µM)	Cc1cn(C[C@H]2CN(c3ccc(C4=CCS(=O)(=O)CC4)c(F)c3)C(=O)O2)nn1
0.25 (≈ 0.586 µM)	1 (≈ 2.34 µM)	3	1 (≈ 2.34 µM)	O=C1O[C@@H](Cn2cc(Cl)nn2)CN1c1ccc(C2=CCS(=O)(=O)CC2)c(F)c1
8 (≈ 19.5 µM)	32 (≈ 78 µM)	1.6	64 (≈ 156 µM)	O=C1O[C@@H](Cn2nncc2F)CN1c1ccc(C2=CCS(=O)(=O)CC2)c(F)c1
0.5 (≈ 1.27 µM)	1 (≈ 2.55 µM)	3.4	2 (≈ 5.1 µM)	O=C1O[C@@H](Cn2ccnn2)CN1c1ccc(C2=CCS(=O)(=O)CC2)c(F)c1
64 (≈ 157 µM)	> 64	4.5	> 64	Cc1cnnn1C[C@H]1CN(c2ccc(C3=CCS(=O)(=O)CC3)c(F)c2)C(=O)O1

Second part, the compound before the results:

SMILES	MIC (Streptococcus pneumoniae) [µg/mL]	MIC (Staphylococcus aureus) [µg/mL]	Ki [1] [µM]	MIC [2] [µg/mL]
CCc1cn(C[C@H]2CN(c3ccc(C4=CCS(=O)(=O)CC4)c(F)c3)C(=O)O2)nn1	2 (≈ 4.76 µM)	4 (≈ 9.51 µM)	> 200	8 (≈ 19 µM)
O=C1O[C@@H](Cn2cc(C=C(Br)Br)nn2)CN1c1ccc(C2=CCS(=O)(=O)CC2)c(F)c1	4 (≈ 6.94 µM)	> 64	> 100	> 64
C#Cc1cn(C[C@H]2CN(c3ccc(C4=CCS(=O)(=O)CC4)c(F)c3)C(=O)O2)nn1	0.5 (≈ 1.2 µM)	2 (≈ 4.8 µM)	> 200	2 (≈ 4.8 µM)
O=Cc1cn(C[C@H]2CN(c3ccc(C4=CCS(=O)(=O)CC4)c(F)c3)C(=O)O2)nn1	2 (≈ 4.76 µM)	16 (≈ 38.1 µM)	3.2	16 (≈ 38.1 µM)
CC(=O)NC[C@H]1CN(c2ccc(C3=CCS(=O)(=O)CC3)c(F)c2)C(=O)O1	0.25 (≈ 0.654 µM)	1 (≈ 2.61 µM)	5.9	1 (≈ 2.61 µM)
O=C1O[C@@H](Cn2cc(/C=C/Br)nn2)CN1c1ccc(C2=CCS(=O)(=O)CC2)c(F)c1	2 (≈ 4.02 µM)	8 (≈ 16.1 µM)	> 200	8 (≈ 16.1 µM)
O=C1O[C@@H](Cn2cc(COP(=O)(Oc3ccccc3)Oc3ccccc3)nn2)CN1c1ccc(C2=CCS(=O)(=O)CC2)c(F)c1	4 (≈ 6.11 µM)	32 (≈ 48.9 µM)	> 100	64 (≈ 97.8 µM)
N#CCc1cn(C[C@H]2CN(c3ccc(C4=CCS(=O)(=O)CC4)c(F)c3)C(=O)O2)nn1	1 (≈ 2.32 µM)	16 (≈ 37.1 µM)	> 200	2 (≈ 4.64 µM)
CC(C)(C)OC(=O)c1cn(C[C@H]2CN(c3ccc(C4=CCS(=O)(=O)CC4)c(F)c3)C(=O)O2)nn1	> 64	> 64	3.5	> 64
CC(C)c1cn(C[C@H]2CN(c3ccc(C4=CCS(=O)(=O)CC4)c(F)c3)C(=O)O2)nn1	4 (≈ 9.21 µM)	8 (≈ 18.4 µM)	102	32 (≈ 73.6 µM)
C[Si](C)(C)C#Cc1cn(C[C@H]2CN(c3ccc(C4=CCS(=O)(=O)CC4)c(F)c3)C(=O)O2)nn1	1 (≈ 2.05 µM)	> 64	> 200	> 64
O=C1O[C@@H](Cn2cc(CO)nn2)CN1c1ccc(C2=CCS(=O)(=O)CC2)c(F)c1	2 (≈ 4.73 µM)	32 (≈ 75.8 µM)	47	4 (≈ 9.47 µM)
